Measured values from PubChem BioAssay AID256 (DTP/NCI, 2004).
Inconclusive results and toxic doses are left out. How the source made its calls: active means survival T/C of 150% or more; inactive means T/C below 125% in these data.

System: CD2F1 mice, L1210 leukemia ip, survival T/C
Assay: NCI In Vivo Anticancer Drug Screen. Data for tumor model L1210 Leukemia (intraperitoneal) in CD2F1 (CDF1) mice
Details: endpoint: mean survival time, higher = longer survival
Summary of the method: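 Implant tumor; dose compound or vehicle; measure endpoint in both groups; report treated divided by control.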

[1] = dose: 100.0 mg/kg/injection, schedule: Q01DX009 (ip), vehicle: saline
[2] = dose: 100.0 mg/kg/injection, schedule: Q04DX003 (ip), vehicle: saline with Tween-80
[3] = dose: 200.0 mg/kg/injection, schedule: Q04DX003 (ip), vehicle: saline with Tween-80
[4] = dose: 400.0 mg/kg/injection, schedule: Q04DX003 (ip), vehicle: saline with Tween-80
[5] = dose: 100.0 mg/kg/injection, schedule: Q01DX009 (ip), vehicle: saline with Tween-80
[6] = dose: 200.0 mg/kg/injection, schedule: Q01DX009 (ip), vehicle: saline with Tween-80

Measured: T/C

C=C1C(=O)OC2CCCC/C=C\C12 (configuration not stated)
inactive: dose: 50.0 mg/kg/injection, schedule: Q01DX009 (ip), vehicle: saline 100 % of control | [1] 102 % of control | dose: 200.0 mg/kg/injection, schedule: Q01DX009 (ip), vehicle: saline 97 % of control

Cc1ccc(S(=O)(=O)/N=S(\C)c2ccc(Cl)cc2)cc1 (configuration not stated)
inactive: [2] 97 % of control | [3] 108 % of control | [4] 90 % of control

CC(=O)Nc1ccc(C(=O)O)cc1
inactive: [2] 96 % of control | [3] 98 % of control | [4] 100 % of control

CSc1ccccc1C1=CCCCCC1
inactive: dose: 50.0 mg/kg/injection, schedule: Q01DX009 (ip), vehicle: saline with Tween-80 103 % of control | dose: 100.0 mg/kg/injection, schedule: Q01DX001 (ip), vehicle: saline with Tween-80 96 % of control | [5] 93 % of control | dose: 200.0 mg/kg/injection, schedule: Q01DX001 (ip), vehicle: saline with Tween-80 94 % of control | [6] 94 % of control

O=C(CC([Se]c1ccccc1)c1ccccc1)c1ccccc1 (configuration not stated)
inactive: dose: 50.0 mg/kg/injection, schedule: Q01DX009 (ip), vehicle: saline sonified 102 % of control | dose: 100.0 mg/kg/injection, schedule: Q01DX009 (ip), vehicle: saline sonified 102 % of control | [2] 105 % of control | dose: 200.0 mg/kg/injection, schedule: Q01DX009 (ip), vehicle: saline sonified 105 % of control | [3] 104 % of control

Cc1ccc2nc(-c3ccc(Cl)cc3Cl)oc(=O)c2c1
inactive: dose: 100.0 mg/kg/injection, schedule: Q04DX002 (ip), vehicle: saline with Tween-80 100 % of control | dose: 200.0 mg/kg/injection, schedule: Q04DX002 (ip), vehicle: saline with Tween-80 114 % of control | dose: 400.0 mg/kg/injection, schedule: Q04DX002 (ip), vehicle: saline with Tween-80 107 % of control

O=[N+]([O-])c1ccc(CSC2=NCCN2)cc1
inactive: [1] 106 % of control

Nc1cc(=O)c2[nH]cnc2[nH]1
inactive: dose: 100.0 mg/kg/injection, schedule: Q01DX001 (ip), vehicle: carboxymethylcellulose (CMC) 95 % of control | dose: 200.0 mg/kg/injection, schedule: Q01DX001 (ip), vehicle: carboxymethylcellulose (CMC) 104 % of control | dose: 400.0 mg/kg/injection, schedule: Q01DX001 (ip), vehicle: carboxymethylcellulose (CMC) 101 % of control

COc1cc(C(=O)N2CC3CCC(CC3)C2)cc(OC)c1OC
inactive: [2] 93 % of control | [3] 96 % of control | [4] 96 % of control

CC1CC(NC(=S)NC(=O)c2ccccc2Cl)CC(C)(C)C1 (configuration not stated)
inactive: [5] 86 % of control | [6] 86 % of control | dose: 400.0 mg/kg/injection, schedule: Q01DX009 (ip), vehicle: saline with Tween-80 86 % of control
